Measurements published in patent publication US11572590B2, “Methods for evaluating tumor cell spheroids using 3D microfluidic cell culture device” (Dana-Farber Cancer Institute, Inc., priority 2017, dated 2023).
Read-outs that look alike come from different tables or passages of the source.

Key:
Assay in all cases: SelectScreen Kinase Profiling, single point inhibition and IC50 for off-target kinases
Format in all cases: biochemical
off-target kinases [1] = target: off-target kinases (Homo sapiens, UniProt P21802); settings: FGFR2, ZLYTE, ATP Km app
off-target kinases [2] = target: off-target kinases (Homo sapiens, UniProt P00533, T790M); settings: EGFR (ErbB1) T790M, mutant y, ZLYTE, ATP Km app
off-target kinases [3] = target: T1, off-target kinases (Homo sapiens, UniProt Q9UKI8); settings: TLK1, LanthaScreen Binding
T1 sequence (Q9UKI8 1-766): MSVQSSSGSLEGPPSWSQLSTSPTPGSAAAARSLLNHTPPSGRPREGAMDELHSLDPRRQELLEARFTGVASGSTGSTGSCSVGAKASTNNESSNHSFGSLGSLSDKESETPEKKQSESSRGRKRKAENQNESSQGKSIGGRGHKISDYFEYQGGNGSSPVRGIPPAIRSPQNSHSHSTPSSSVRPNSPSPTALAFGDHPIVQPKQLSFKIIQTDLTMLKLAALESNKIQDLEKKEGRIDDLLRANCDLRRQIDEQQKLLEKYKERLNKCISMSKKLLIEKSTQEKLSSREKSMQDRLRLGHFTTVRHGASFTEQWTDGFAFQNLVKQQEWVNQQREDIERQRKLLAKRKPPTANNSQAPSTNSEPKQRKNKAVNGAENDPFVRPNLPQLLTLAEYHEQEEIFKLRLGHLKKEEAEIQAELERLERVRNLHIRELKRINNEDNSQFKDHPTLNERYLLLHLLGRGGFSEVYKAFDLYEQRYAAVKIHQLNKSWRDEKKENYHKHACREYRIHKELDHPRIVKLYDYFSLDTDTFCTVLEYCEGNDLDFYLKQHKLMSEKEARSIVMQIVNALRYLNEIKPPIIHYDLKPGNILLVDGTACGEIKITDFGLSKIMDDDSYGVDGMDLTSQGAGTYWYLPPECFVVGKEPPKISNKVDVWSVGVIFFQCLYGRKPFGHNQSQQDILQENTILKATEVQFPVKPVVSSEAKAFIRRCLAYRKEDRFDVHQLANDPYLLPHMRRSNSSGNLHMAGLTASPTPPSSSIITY

off-target kinases [4] = target: T2, off-target kinases (Homo sapiens, UniProt Q96L34); settings: MARK4, ATP Km app, ZLYTE
T2 sequence (Q96L34 1-752): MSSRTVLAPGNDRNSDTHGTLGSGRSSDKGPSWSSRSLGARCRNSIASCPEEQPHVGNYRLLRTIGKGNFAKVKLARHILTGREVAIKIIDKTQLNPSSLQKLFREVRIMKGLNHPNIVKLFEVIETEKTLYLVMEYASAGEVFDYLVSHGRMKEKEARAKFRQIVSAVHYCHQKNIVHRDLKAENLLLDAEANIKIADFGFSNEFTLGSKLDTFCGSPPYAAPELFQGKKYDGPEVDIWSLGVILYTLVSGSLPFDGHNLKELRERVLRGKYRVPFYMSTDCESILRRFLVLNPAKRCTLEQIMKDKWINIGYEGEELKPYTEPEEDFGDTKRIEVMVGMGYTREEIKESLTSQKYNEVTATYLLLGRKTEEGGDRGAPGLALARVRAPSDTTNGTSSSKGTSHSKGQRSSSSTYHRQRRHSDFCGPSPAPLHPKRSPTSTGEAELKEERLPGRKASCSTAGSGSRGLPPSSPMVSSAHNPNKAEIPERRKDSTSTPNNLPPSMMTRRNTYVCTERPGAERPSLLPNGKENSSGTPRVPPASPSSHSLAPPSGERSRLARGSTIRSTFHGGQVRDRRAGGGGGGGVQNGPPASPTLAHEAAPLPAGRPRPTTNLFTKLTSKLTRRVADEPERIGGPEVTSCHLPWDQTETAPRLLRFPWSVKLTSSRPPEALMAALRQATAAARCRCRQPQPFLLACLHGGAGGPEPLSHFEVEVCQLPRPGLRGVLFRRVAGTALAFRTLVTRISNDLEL

off-target kinases (Homo sapiens, UniProt P00533, T790M), sequence (P00533 25-1210 T790M): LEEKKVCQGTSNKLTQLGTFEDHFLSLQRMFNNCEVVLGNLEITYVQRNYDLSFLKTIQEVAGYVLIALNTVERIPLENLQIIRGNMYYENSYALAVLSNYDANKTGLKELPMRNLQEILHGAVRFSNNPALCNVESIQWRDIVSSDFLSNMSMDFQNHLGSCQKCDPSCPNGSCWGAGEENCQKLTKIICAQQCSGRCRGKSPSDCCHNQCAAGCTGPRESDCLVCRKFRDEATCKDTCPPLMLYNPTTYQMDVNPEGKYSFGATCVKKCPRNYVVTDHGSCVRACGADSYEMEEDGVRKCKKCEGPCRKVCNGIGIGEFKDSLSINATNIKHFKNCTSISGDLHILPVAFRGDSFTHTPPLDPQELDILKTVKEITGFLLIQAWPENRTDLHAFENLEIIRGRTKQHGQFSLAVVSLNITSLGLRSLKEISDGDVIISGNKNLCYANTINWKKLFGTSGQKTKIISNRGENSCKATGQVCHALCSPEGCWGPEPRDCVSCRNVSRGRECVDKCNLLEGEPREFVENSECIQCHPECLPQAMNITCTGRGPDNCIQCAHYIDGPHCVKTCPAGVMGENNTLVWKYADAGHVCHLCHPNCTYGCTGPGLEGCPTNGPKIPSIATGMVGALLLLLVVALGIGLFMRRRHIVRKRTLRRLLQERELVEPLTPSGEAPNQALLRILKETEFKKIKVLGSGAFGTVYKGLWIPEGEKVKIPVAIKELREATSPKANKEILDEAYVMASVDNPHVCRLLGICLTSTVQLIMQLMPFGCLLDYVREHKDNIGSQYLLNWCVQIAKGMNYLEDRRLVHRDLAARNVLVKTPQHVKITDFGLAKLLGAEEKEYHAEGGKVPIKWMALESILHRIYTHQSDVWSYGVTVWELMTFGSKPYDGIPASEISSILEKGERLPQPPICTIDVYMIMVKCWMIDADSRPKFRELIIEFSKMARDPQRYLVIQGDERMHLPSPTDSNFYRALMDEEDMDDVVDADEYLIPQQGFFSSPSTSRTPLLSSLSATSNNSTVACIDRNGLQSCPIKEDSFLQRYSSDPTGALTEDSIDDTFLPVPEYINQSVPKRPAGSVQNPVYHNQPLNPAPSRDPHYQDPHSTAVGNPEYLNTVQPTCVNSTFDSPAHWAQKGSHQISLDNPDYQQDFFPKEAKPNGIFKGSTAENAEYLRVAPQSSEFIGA
off-target kinases (Homo sapiens, UniProt P21802), sequence (P21802 22-821): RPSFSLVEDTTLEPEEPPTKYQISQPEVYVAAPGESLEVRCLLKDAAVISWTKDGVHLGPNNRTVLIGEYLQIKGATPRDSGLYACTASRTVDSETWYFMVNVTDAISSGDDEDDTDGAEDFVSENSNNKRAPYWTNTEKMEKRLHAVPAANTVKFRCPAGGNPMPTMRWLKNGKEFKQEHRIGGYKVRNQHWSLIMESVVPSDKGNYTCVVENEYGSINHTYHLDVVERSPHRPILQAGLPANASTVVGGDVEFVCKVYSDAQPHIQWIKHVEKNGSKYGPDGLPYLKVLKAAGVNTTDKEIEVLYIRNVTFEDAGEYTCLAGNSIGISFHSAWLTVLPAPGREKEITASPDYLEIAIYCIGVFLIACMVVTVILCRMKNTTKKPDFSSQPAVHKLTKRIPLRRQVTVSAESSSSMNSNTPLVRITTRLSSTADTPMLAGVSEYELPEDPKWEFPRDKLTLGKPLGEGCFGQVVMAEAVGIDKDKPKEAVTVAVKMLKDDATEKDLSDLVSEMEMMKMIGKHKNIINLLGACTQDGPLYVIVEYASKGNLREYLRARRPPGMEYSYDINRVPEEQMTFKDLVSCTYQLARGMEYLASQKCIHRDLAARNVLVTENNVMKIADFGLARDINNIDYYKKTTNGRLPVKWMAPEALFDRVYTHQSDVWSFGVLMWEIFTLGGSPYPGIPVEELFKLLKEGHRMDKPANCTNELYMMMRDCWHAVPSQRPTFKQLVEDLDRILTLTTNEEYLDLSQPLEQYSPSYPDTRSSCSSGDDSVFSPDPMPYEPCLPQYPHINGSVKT

`N#Cc1cc(-c2ncnc(Nc3ccc(N4CCN(C5COC5)CC4)cc3)n2)ccc1OC1CCOCC1` [Compound 1, 5-(4-((4-(4-(oxetan-3-yl)piperazin-1-yl)phenyl)amino)-1,3,5-triazin-2-yl)-2-((tetrahydro-2H-pyran-4-yl)oxy)benzonitrile] was tested, and the inhibition (off-target kinases [1]; read-out: % Inhibition 1) was 12%, the inhibition (off-target kinases [1]; read-out: % Inhibition 2) was 11% and the inhibition (off-target kinases [1]; read-out: % Inhibition Avg) was 12%. For the same compound, the inhibition (off-target kinases [2]; read-out: % Inhibition 1) was 25%, the inhibition (off-target kinases [2]; read-out: % Inhibition 2) was 25% and the inhibition (off-target kinases [2]; read-out: % Inhibition Avg) was 25%. For the same compound, the inhibition (off-target kinases [3]; read-out: % Inhibition 1) was 13%, the inhibition (off-target kinases [3]; read-out: % Inhibition 2) was 17% and the inhibition (off-target kinases [3]; read-out: % Inhibition Avg) was 15%. The inhibition (off-target kinases [4]; read-out: % Inhibition 1) was 96%, the inhibition (off-target kinases [4]; read-out: % Inhibition 2) was 93% and the inhibition (off-target kinases [4]; read-out: % Inhibition Avg) was 95%.
